Assay [1] concerns the target Casein kinase II subunit alpha (Homo sapiens) (UniProt P68400). Briefly: Binding affinity to wild-type human full length CSNK2A1 (M1 to Q391 residues) expressed in mammalian expression system assessed as residual binding level at 10 uM by Kinomescan method relative to control.
Assay [2] deals with Vascular endothelial growth factor receptor 3 (Homo sapiens) (UniProt P35916). Briefly: Binding affinity to wild-type human partial length FLT4 (E821 to E1196 residues) expressed in bacterial expression system assessed as residual binding level at 10 uM by Kinomescan method relative to control.
Assay [3] addresses RAF proto-oncogene serine/threonine-protein kinase (Homo sapiens) (UniProt P04049). In words: Binding affinity to wild-type human partial length RAF1 (I330 to T640 residues) expressed in bacterial expression system assessed as residual binding level at 10 uM by Kinomescan method relative to control.
The target of assay [4] is STE20/SPS1-related proline-alanine-rich protein kinase (Homo sapiens) (UniProt Q9UEW8). Briefly: Binding affinity to wild-type human partial length STK39 (P43 to I357 residues) expressed in mammalian expression system assessed as residual binding level at 10 uM by Kinomescan method relative to control.
For assay [5], the target named is Tyrosine-protein kinase Blk (Homo sapiens) (UniProt P51451). Briefly: Binding affinity to wild-type human partial length BLK (G211 to L503 residues) expressed in bacterial expression system assessed as residual binding level at 10 uM by Kinomescan method relative to control.
Assay [6] addresses Proto-oncogene tyrosine-protein kinase ROS (Homo sapiens) (UniProt P08922). In words: Binding affinity to wild-type human partial length ROS1 (A1921 to N2240 residues) expressed in bacterial expression system assessed as residual binding level at 10 uM by Kinomescan method relative to control.
Assay [7] concerns the target Focal adhesion kinase 1 (Homo sapiens) (UniProt Q05397). Briefly: Binding affinity to wild-type human partial length FAK (D402 to R696 residues) expressed in bacterial expression system assessed as residual binding level at 10 uM by Kinomescan method relative to control.
The target of assay [8] is Serine/threonine-protein kinase ULK1 (Homo sapiens) (UniProt O75385). Briefly: Binding affinity to wild-type human partial length ULK1 (M1 to T309 residues) expressed in mammalian expression system assessed as residual binding level at 10 uM by Kinomescan method relative to control.
Assay [9] deals with Serine/threonine-protein kinase MRCK alpha (Homo sapiens) (UniProt Q5VT25). Briefly: Binding affinity to wild-type human partial length MRCKA (L57 to V418 residues) expressed in bacterial expression system assessed as residual binding level at 10 uM by Kinomescan method relative to control.
In assay [10] the target is Mitogen-activated protein kinase kinase kinase 3 (Homo sapiens) (UniProt Q99759). In words: Binding affinity to wild-type human partial length MAP3K3 (E320 to Y626 residues) expressed in mammalian expression system assessed as residual binding level at 10 uM by Kinomescan method relative to control.
Assay [11] has as its system Epidermal growth factor receptor (Homo sapiens), P00533 [L858R]. In words: Binding affinity to human partial length EGFR L858R mutant (R669 to V1011 residues) expressed in bacterial expression system assessed as residual binding level at 10 uM by Kinomescan method relative to control.
Assay [12] deals with Activin receptor type-1-like (Homo sapiens) (UniProt P37023). In words: Binding affinity to wild-type human ACVRL1 (L164 to Q503 residues) expressed in bacterial expression system assessed as residual binding level at 10 uM by Kinomescan method relative to control.
For assay [13], the target named is Dual specificity protein kinase TTK (Homo sapiens) (UniProt P33981). Briefly: Binding affinity to wild-type human partial length TTK (N505 to V798 residues) expressed in bacterial expression system assessed as residual binding level at 10 uM by Kinomescan method relative to control.
Chain of Dual specificity protein kinase TTK (Homo sapiens) (P33981 whole entry, the tested form may be a part): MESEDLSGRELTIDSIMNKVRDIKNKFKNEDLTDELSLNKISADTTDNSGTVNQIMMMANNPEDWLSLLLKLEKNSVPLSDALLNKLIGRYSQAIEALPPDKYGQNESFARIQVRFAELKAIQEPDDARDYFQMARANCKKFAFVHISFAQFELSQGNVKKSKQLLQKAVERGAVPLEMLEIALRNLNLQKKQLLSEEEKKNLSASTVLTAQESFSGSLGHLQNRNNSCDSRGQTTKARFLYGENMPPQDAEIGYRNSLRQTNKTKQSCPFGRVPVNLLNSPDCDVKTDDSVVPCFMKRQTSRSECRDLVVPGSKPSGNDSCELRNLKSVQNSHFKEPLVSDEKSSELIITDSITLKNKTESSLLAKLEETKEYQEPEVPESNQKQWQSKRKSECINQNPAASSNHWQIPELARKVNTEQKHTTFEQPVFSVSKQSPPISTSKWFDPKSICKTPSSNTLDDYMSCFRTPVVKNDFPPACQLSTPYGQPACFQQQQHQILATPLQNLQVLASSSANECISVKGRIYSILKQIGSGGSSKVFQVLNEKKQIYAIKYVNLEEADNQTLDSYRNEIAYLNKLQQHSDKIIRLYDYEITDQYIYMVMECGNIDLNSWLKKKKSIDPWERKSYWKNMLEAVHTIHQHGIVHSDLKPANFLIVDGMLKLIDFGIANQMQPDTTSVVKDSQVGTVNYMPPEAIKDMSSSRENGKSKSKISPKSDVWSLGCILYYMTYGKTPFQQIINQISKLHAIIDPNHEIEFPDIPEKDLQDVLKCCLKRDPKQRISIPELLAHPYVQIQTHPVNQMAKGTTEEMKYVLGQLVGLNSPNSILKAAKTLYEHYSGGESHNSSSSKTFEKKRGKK
Assay [14] has as its target Interleukin-1 receptor-associated kinase 3 (Homo sapiens) (UniProt Q9Y616). In words: Binding affinity to wild-type human partial length IRAK3 (V147 to E596 residues) expressed in bacterial expression system assessed as residual binding level at 10 uM by Kinomescan method relative to control.
Assay [15] addresses Ribosomal protein S6 kinase alpha-2 (Homo sapiens) (UniProt Q15349). In words: Binding affinity to wild-type human partial length C-terminal RSK3 kinase domain 2 (V403 to K700 residues) expressed in bacterial expression system assessed as residual binding level at 10 uM by Kinomescan method relative to control.
Assay [16] addresses Casein kinase I isoform delta (Homo sapiens) (UniProt P48730). In words: Binding affinity to wild-type human full length CSNK1D (M1 to K409 residues) expressed in bacterial expression system assessed as residual binding level at 10 uM by Kinomescan method relative to control.
The target in assay [17] is Citron Rho-interacting kinase (Homo sapiens) (UniProt O14578). Briefly: Binding affinity to wild-type human partial length CIT (M68 to E432 residues) expressed in bacterial expression system assessed as residual binding level at 10 uM by Kinomescan method relative to control.
For assay [18], the system named is Serine/threonine-protein kinase B-raf (Homo sapiens), P15056 [V600E]. In words: Binding affinity to human partial length BRAF V600E mutant (S429 to E741 residues) expressed in mammalian expression system assessed as residual binding level at 10 uM by Kinomescan method relative to control.
The target of assay [19] is Dual specificity tyrosine-phosphorylation-regulated kinase 1B (Homo sapiens) (UniProt Q9Y463). Briefly: Binding affinity to wild-type human full length DYRK1B (M1 to S629 residues) expressed in bacterial expression system assessed as residual binding level at 10 uM by Kinomescan method relative to control.
Assay [20] has as its target NUAK family SNF1-like kinase 2 (Homo sapiens) (UniProt Q9H093). Briefly: Binding affinity to wild-type human partial length SNARK (P22 to A333 residues) expressed in mammalian expression system assessed as residual binding level at 10 uM by Kinomescan method relative to control.
The target in assay [21] is Epithelial discoidin domain-containing receptor 1 (Homo sapiens) (UniProt Q08345). Briefly: Binding affinity to wild-type human partial length DDR1 (R565 to V876 residues) expressed in bacterial expression system assessed as residual binding level at 10 uM by Kinomescan method relative to control.
Chain of Epithelial discoidin domain-containing receptor 1 (Homo sapiens) (Q08345 whole entry, the tested form may be a part): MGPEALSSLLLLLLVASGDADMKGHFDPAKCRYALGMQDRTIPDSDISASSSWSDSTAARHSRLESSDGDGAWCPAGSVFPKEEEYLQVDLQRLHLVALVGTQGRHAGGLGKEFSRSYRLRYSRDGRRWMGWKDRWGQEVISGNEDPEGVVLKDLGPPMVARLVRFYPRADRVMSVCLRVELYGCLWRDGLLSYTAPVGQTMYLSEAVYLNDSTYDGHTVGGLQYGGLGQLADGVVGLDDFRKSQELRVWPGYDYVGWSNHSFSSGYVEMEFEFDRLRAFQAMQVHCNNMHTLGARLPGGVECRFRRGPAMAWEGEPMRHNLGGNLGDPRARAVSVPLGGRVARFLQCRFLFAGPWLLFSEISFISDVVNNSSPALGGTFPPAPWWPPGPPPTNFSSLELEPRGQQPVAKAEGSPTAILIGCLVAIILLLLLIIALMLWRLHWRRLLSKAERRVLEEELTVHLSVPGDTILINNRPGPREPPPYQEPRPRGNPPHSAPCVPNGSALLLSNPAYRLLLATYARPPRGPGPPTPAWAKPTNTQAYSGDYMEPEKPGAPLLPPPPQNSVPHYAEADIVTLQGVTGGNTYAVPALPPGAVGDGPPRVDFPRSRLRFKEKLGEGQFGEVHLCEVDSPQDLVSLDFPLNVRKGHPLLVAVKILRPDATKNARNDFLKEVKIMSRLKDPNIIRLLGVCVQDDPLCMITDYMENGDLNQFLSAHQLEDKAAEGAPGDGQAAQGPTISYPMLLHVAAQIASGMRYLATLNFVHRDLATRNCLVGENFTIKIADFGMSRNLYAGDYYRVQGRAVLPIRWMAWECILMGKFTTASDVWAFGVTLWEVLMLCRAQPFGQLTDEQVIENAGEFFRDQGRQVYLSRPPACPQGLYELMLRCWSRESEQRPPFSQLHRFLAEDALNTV
In assay [22] the target is Tyrosine-protein kinase JAK3 (Homo sapiens) (UniProt P52333). In words: Binding affinity to wild-type human partial length JAK3 JH1 catalytic domain (I781 to S1124 residues) expressed in mammalian expression system assessed as residual binding level at 10 uM by Kinomescan method relative to control.
Chain of Tyrosine-protein kinase JAK3 (Homo sapiens) (P52333 whole entry, the tested form may be a part): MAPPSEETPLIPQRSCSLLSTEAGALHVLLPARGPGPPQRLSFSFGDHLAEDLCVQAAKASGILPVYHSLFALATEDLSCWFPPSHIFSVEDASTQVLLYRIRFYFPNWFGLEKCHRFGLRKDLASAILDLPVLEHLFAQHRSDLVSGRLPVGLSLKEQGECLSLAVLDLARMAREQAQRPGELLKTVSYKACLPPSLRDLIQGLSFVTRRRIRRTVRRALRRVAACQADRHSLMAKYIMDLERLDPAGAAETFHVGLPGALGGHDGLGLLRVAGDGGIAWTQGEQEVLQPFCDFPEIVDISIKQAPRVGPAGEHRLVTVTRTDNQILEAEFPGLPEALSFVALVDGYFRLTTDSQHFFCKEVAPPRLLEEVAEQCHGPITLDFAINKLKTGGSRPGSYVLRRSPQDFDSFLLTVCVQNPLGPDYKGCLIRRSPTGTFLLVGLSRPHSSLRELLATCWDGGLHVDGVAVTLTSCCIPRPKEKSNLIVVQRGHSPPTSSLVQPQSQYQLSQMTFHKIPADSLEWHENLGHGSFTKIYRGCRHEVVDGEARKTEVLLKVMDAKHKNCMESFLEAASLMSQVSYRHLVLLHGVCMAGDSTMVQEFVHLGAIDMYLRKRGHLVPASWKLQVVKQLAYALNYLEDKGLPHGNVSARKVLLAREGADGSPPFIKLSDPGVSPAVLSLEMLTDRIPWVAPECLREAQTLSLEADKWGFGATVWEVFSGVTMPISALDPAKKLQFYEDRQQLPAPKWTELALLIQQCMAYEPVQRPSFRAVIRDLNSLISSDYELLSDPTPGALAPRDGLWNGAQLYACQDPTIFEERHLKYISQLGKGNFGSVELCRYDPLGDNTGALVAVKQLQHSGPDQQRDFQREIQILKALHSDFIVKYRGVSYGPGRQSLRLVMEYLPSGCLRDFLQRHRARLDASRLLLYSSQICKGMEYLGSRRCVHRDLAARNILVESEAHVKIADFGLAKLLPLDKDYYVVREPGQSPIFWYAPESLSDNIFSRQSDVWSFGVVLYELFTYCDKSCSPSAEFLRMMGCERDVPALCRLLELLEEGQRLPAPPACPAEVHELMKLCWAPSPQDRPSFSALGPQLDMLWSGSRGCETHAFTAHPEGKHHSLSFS
For assay [23], the target named is Dual specificity mitogen-activated protein kinase kinase 6 (Homo sapiens) (UniProt P52564). In words: Binding affinity to wild-type human partial length MEK6 (K36 to D334 residues) expressed in bacterial expression system assessed as residual binding level at 10 uM by Kinomescan method relative to control.
Chain of Dual specificity mitogen-activated protein kinase kinase 6 (Homo sapiens) (P52564 whole entry, the tested form may be a part): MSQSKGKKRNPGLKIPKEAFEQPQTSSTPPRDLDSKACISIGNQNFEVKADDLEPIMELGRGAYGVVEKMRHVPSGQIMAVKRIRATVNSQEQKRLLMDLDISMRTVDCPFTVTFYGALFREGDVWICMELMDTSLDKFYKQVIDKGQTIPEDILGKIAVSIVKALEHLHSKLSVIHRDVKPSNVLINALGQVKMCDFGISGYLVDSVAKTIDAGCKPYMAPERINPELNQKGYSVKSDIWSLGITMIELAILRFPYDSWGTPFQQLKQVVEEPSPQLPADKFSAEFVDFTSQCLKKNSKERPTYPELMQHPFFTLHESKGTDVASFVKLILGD
Assay [24] has as its target Inhibitor of nuclear factor kappa-B kinase subunit beta (Homo sapiens) (UniProt O14920). Briefly: Binding affinity to wild-type human full length IKK-beta (M1 to S756 residues) expressed in mammalian expression system assessed as residual binding level at 10 uM by Kinomescan method relative to control.

Chain of Casein kinase I isoform delta (Homo sapiens) (P48730 whole entry, looked up, the tested form may be a part, canonical isoform): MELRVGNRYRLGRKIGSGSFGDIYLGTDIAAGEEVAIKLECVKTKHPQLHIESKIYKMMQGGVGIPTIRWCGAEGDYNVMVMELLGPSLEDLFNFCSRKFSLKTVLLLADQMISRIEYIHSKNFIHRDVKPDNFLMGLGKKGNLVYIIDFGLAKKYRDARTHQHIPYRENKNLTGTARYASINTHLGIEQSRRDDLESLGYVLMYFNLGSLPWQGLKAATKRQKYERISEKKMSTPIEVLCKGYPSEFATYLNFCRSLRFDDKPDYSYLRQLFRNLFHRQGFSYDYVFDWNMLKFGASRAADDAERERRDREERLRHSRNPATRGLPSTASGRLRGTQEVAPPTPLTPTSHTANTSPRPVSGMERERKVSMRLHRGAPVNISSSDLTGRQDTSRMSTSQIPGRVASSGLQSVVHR
Chain of NUAK family SNF1-like kinase 2 (Homo sapiens) (Q9H093 whole entry, the tested form may be a part): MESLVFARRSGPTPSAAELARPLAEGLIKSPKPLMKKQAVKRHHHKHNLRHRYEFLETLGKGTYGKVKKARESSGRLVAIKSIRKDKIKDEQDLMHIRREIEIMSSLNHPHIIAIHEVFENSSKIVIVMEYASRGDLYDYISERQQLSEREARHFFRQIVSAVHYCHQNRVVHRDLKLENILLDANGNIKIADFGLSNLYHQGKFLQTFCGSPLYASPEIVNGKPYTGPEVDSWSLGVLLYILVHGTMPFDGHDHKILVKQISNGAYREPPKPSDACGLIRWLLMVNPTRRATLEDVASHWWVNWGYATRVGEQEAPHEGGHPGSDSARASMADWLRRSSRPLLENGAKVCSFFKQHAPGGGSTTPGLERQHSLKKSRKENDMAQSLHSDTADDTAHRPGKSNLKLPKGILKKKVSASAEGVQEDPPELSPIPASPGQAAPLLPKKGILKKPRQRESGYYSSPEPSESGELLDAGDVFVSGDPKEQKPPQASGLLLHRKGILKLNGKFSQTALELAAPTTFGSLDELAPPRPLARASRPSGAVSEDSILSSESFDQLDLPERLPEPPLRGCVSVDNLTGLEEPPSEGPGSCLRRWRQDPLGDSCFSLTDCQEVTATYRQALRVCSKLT
Chain of Inhibitor of nuclear factor kappa-B kinase subunit beta (Homo sapiens) (O14920 whole entry, the tested form may be a part): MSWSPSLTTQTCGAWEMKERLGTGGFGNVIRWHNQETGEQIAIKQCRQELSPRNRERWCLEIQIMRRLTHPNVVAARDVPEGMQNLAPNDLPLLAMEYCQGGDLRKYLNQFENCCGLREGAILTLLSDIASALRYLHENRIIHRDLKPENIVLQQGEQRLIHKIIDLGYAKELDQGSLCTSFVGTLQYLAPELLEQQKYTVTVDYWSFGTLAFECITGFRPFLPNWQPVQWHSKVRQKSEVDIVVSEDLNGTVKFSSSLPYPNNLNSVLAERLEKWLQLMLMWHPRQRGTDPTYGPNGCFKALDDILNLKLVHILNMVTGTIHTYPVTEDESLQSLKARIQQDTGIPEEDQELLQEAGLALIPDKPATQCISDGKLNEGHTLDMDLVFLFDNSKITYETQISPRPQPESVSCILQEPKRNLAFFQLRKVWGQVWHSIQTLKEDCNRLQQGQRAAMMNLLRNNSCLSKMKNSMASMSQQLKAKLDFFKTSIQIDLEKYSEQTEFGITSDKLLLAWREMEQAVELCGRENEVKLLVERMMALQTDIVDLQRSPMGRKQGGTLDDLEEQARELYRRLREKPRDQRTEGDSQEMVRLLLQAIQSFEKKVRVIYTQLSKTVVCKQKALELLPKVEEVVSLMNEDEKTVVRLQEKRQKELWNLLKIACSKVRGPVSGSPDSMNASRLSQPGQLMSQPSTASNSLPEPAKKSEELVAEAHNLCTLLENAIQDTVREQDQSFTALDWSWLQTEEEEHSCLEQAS

Regarding `CC(C)N1C(=O)C(NCCCN(C)C)=C(c2cn(C)c3ccccc23)C1=O.Cl`, the Activity in [1] stood at 98%; in assay [2], 99%; in [3], 100%; in assay [4] it was 98%; in assay [5] it was 98%; in assay [6], 87%. The Activity in assay [7] stood at 100%; in assay [8], 79%; in assay [9] it was 98%; in assay [10] it was 100%; in assay [11] it was 82%; in [12], 100%. Also, the Activity stood at 100% in [13]; 85% in assay [14]; 100% in assay [15]; 100% in [16]; 84% in assay [17]; 88% in [18]. Further, the Activity in assay [19] turned out to be 93%; in [20] it was 79%; in [21] it was 100%; in assay [22] it was 81%; in [23], 99%; in assay [24], 83%.

The values above are taken from ChEMBL document CHEMBL4304811, “Development of a Water-Soluble Indolylmaleimide Derivative IM-93 Showing Dual Inhibition of Ferroptosis and NETosis” (ACS Med Chem Lett, 2019).
